Experimental data: ChEMBL document CHEMBL1201862, “PubChem BioAssay data set” (2004)
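Test compounds were applied to cells in 96-well plates for 48 hours at 5 doses. Abbreviation: GI50, concentration required for 50% inhibition of growth.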 Activity calls are given as the source filed them. No stated cut-off is given here; in the data, active = GI50 up to about 1.1 µM and inactive = higher.

Key:
Assay in all cases: NCI tumour cell line growth inhibition, 48 h
BT-549 = test system: BT-549
DMS-273 = test system: DMS-273
DLD-1 = test system: DLD-1
XF498 = test system: XF498
HOP-18 = test system: HOP-18
M19-MEL = test system: M19-MEL
DMS-114 = test system: DMS-114
SNB-78 = test system: SNB-78
RXF 631 = test system: RXF 631

Compound	GI50 (BT-549)	GI50 (DMS-273)	GI50 (DLD-1)	GI50 (M19-MEL)	GI50 (SNB-78)	also measured
COc1ccccc1N/C(SCc1ccccc1)=C(/C(Cl)=C(Cl)Cl)[N+](=O)[O-]	15.1 µM (inactive)	–	–	–	–	–
NC(=O)NOCC1NC(=O)NC1=O (centres undefined)	> 100 µM (inactive)	–	–	–	–	–
CCN(CC)CC(C)C(=O)/C=C/c1ccc(C)cc1 (centres undefined)	–	2.23 µM (inactive)	1.67 µM (inactive)	1.67 µM (inactive)	4.59 µM (inactive)	GI50 (XF498): 1.54 µM (inactive); GI50 (HOP-18): 10.5 µM (inactive); GI50 (DMS-114): 1.77 µM (inactive)
O=C1NC2OC(CO)C(O)C(O)C2O1 (centres undefined)	–	> 100 µM (inactive)	> 100 µM (inactive)	> 100 µM (inactive)	> 100 µM (inactive)	GI50 (HOP-18): > 100 µM (inactive); GI50 (DMS-114): > 100 µM (inactive)
CNc1ccc(C(=O)CC(O)CCC(C)C2OC(=O)CC(O)CC(=O)CC(O)CC(O)CC(O)CC(O)CC3(O)CC(O)C(C(=O)NCCN(C)C)C(CC(OC4OC(C)C(O)C(NC(=O)CN5CCN(C)CC5)C4O)\C=C/C=C\C=C/C=C/C=C/C=C\C=C/C2C)O3)cc1 (centres undefined)	11.2 µM (inactive)	–	–	–	–	–
CN(C)c1cccc(-c2cc(=S)c3cc4c(cc3[nH]2)OCO4)c1	> 100 µM (inactive)	–	–	–	–	–
CCSCN(C)c1nc(N(C)C)nc(N(C)C)n1	–	38.6 µM (inactive)	83 µM (inactive)	64 µM (inactive)	> 100 µM (inactive)	GI50 (HOP-18): > 100 µM (inactive); GI50 (DMS-114): 25.9 µM (inactive)
COC(=O)[C@@H]1C=C[C@H](OC2OC(COC(C)=O)C(OC(C)=O)C(OC(C)=O)C2OC(C)=O)n2c(=O)c3ccccc3c(=O)n21 (some centres undefined)	4.8 µM (inactive)	–	–	–	–	–
O=C1Cc2c(-c3ccccc3)cc(-c3ccc(Cl)cc3)nc2-c2ccccc2N1	17.1 µM (inactive)	–	–	–	–	–
CCCC(=O)NC(Nc1ccc(F)cc1)(C(F)(F)F)C(F)(F)F	80 µM (inactive)	–	–	–	–	–
Clc1ccccc1/C=c1\nc(-c2ccccc2)n2c1nc1ccccc12	18.2 µM (inactive)	–	–	–	–	–
Cc1ccc2c(c1)C1(C)OC(CC(N)C1O)O2 (centres undefined)	–	> 100 µM (inactive)	> 100 µM (inactive)	> 100 µM (inactive)	–	GI50 (HOP-18): > 100 µM (inactive); GI50 (DMS-114): > 100 µM (inactive)
CN(C)c1ccc(C(Cc2ccccc2)C2NC(=S)NC2=O)cc1 (centres undefined)	> 100 µM (inactive)	–	–	–	–	–
c1ccc2[nH]c3nc4ccccc4c-3cc2c1	0.512 µM (active)	–	–	–	–	–
Cc1ccc(SSc2ccc(C)cc2C(=O)O)c(C(=O)O)c1	–	> 100 µM (inactive)	> 100 µM (inactive)	> 100 µM (inactive)	> 100 µM (inactive)	GI50 (RXF 631): > 100 µM (inactive)
CCN(CC)CCCC(C)Nc1ccnc2cc(Cl)ccc12 (centres undefined) [CHLOROQUINE PHOSPHATE]	–	28.1 µM (inactive)	> 100 µM (inactive)	–	29.9 µM (inactive)	GI50 (XF498): 17.9 µM (inactive); GI50 (DMS-114): 24.3 µM (inactive)
CCc1nc(N)nc(N)c1-c1ccc(Cc2ccccc2)c([N+](=O)[O-])c1	13 µM (inactive)	–	–	–	–	–
COc1ccc(/C=C2\C[C@H]3[C@@H]4CC=C5C[C@@H](OC(C)=O)CC[C@]5(C)[C@H]4CC[C@]3(C)\C2=N\O)cc1OC	> 100 µM (inactive)	–	–	–	–	–
Cc1cc(C)c(P2C(=C(O[Si](C(C)C)(C(C)C)C(C)C)C(C)(C)C)C2(c2ccccc2)c2ccccc2)c(C)c1 (centres undefined)	> 100 µM (inactive)	–	–	–	–	–
COC(=O)[C@@H](O)[C@]1(C(=O)OC)C2O[C@@H](OC)[C@@H]1CCCCCC[C@H]2O	> 100 µM (inactive)	–	–	–	–	–
CCC(CO)Nc1nc2c(c(=O)n(C)c(=O)n2C)n1CCO (centres undefined)	–	> 100 µM (inactive)	–	> 100 µM (inactive)	4.91 µM (inactive)	–
COc1cc2c(cc1O)NC(=O)[C@@H]1C[C@@H](O)CN1C2=O	86.1 µM (inactive)	–	–	–	–	–
COc1ccc(-n2sc3ncc(-c4ccccc4)cc3c2=O)cc1	94 µM (inactive)	–	–	–	–	–
CC1=CC(/C=C(\C)CCCc2ccoc2)C2(OC(=O)C(C)=C2O)[C@H]2C1CC[C@@H]2C (some centres undefined)	–	> 10 µM (inactive)	25.5 µM (inactive)	29 µM (inactive)	30.5 µM (inactive)	GI50 (HOP-18): 14.2 µM (inactive); GI50 (DMS-114): 22.1 µM (inactive)
Nc1ccc(C(=O)N/C(=C\C=C\c2ccco2)c2nc3c(O)nc(S)nc3[nH]2)cc1	–	> 100 µM (inactive)	> 100 µM (inactive)	> 100 µM (inactive)	> 100 µM (inactive)	GI50 (XF498): > 100 µM (inactive); GI50 (RXF 631): > 100 µM (inactive)
O=c1c2cc([N+](=O)[O-])ccc2n2n1Cc1ccccc1C2	76.2 µM (inactive)	–	–	–	–	–
CC(=O)Nc1nnc(S(=O)(=O)NC(=S)Nc2ccc(Cl)cc2)s1	> 100 µM (inactive)	–	–	–	–	–
COC1CC(OS(=O)(=O)c2ccc(C)cc2)C(OS(=O)(=O)c2ccc(C)cc2)C(COS(=O)(=O)c2ccc(C)cc2)O1 (centres undefined)	–	5.32 µM (inactive)	8.75 µM (inactive)	7.38 µM (inactive)	5.46 µM (inactive)	GI50 (HOP-18): 2.24 µM (inactive); GI50 (DMS-114): 2.92 µM (inactive)
NC(=O)C1C(=O)Oc2cccnc21 (centres undefined)	–	> 100 µM (inactive)	> 100 µM (inactive)	> 100 µM (inactive)	–	GI50 (XF498): > 100 µM (inactive); GI50 (HOP-18): > 100 µM (inactive); GI50 (DMS-114): > 100 µM (inactive)
